Results: PubChem BioAssay (NCI)
Where “and” joins values, the source holds several entries; their conditions need not be identical. Equal entries are not always repeated.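 In this assay, cells in 96-well plates receive the compound at five concentrations for 48 hours. Endpoints are linearly interpolated between the surrounding concentrations. GI50 = concentration required for 50% inhibition of growth. TGI marks complete inhibition of growth.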

What was measured:
Assay in all cases: NCI tumour cell line growth inhibition, 48 h
[1] = test system: A549 NSCLC
[2] = test system: CAKI-1 renal
[3] = test system: SK-MEL-28 melanoma
[4] = test system: A498 renal
[5] = test system: U251 CNS
[6] = test system: OVCAR-5 ovarian
[7] = test system: OVCAR-3 ovarian
[8] = test system: HCT-116 colon
[9] = test system: HS 578T breast
[10] = test system: BT-549 breast

Structure (SMILES) | TGI [1] | TGI [2] | TGI [3] | TGI [4] | TGI [5] | TGI [6] | TGI [7] | TGI [8] | GI50 [1] | GI50 [2] | GI50 [3] | GI50 [4] | GI50 [5] | GI50 [6] | GI50 [7] | GI50 [8] | TGI [9] | TGI [10] | GI50 [10] | GI50 [9]
Brc1ccc2[nH]c3c(C4=NCCC4)nccc3c2c1 | > 100 µM | > 53.1 µM | > 100 µM | > 49.2 µM | > 38.8 µM | > 29.7 µM | > 100 µM | > 23.2 µM | – | – | – | – | – | – | – | – | – | – | – | –
[CH3][Sn]([CH3])([CH3])[S]C(=S)N1CCOCC1 | > 92.7 µM | > 46.4 µM | 33.6 µM | 73.8 µM | 11.4 µM | > 28.2 µM | 1.32 µM | 2.03 µM | 1.07 µM | 4 µM | 3.49 µM | 15.3 µM | 2.82 µM | 2.5 µM | 0.331 µM | 0.146 µM | – | – | – | –
C/C(=C\C(=O)Nc1ccc2n[nH]nc2c1)Nc1ccc2n[nH]nc2c1 | > 100 µM | > 100 µM | > 100 µM | > 100 µM | > 100 µM | > 100 µM | > 100 µM | > 100 µM | – | – | – | – | – | – | – | – | – | – | – | –
CCOC(=O)C1=C(O)CC(=O)N=C1N1CCCC1 | > 100 µM | > 100 µM | > 100 µM | > 100 µM | > 100 µM | > 100 µM | > 100 µM | > 100 µM | – | – | – | – | – | – | – | – | > 100 µM | – | – | –
ClC1=NSSC1(Cl)Cl | > 100 µM | 34.8 µM | – | > 100 µM | > 100 µM | 85 µM | 64.5 µM | > 100 µM | – | – | – | – | – | – | – | – | – | > 100 µM | – | –
Nc1cccc(-c2cc(=O)c3cc4c(cc3[nH]2)OCO4)c1 | > 47.8 µM | > 100 µM | > 100 µM | > 100 µM | 24.9 µM | > 100 µM | – | 3.62 µM | – | – | – | – | – | – | – | – | 6.56 µM | > 100 µM | – | –
Nc1nc(Cl)c2ncn(CCCC(c3ccccc3)P(=O)(O)O)c2n1 (stereo not given) | > 100 µM | > 100 µM | > 100 µM | > 100 µM | > 100 µM | > 100 µM | > 100 µM | > 100 µM | – | – | – | – | – | – | – | – | – | – | – | –
COc1ccc(OC)c2c(C(C)=O)cccc12 | > 100 µM | – | > 100 µM | > 100 µM | > 100 µM | > 100 µM | > 100 µM | > 100 µM | – | – | – | – | – | – | – | – | > 100 µM | – | – | –
Cc1c2cc[n+](Cc3ccc(I)cc3)cc2c(C)c2c1[nH]c1ccccc12 | > 25 µM | 3.51 µM | 11.7 µM | > 25 µM | 8.59 µM | 11.3 µM | 3.72 µM | > 16.8 µM | – | – | – | – | – | – | – | – | – | – | – | –
CC(C)c1cc(=O)[nH]c2cc(N)ccc12 | > 100 µM | > 100 µM | > 100 µM | > 100 µM | > 100 µM | > 100 µM | > 100 µM | > 100 µM | – | – | – | – | – | – | – | – | – | > 100 µM | – | –
Cc1ccc(C)c2c1C1CCCCC3(OCCCO3)C21O (stereo not given) | > 100 µM | > 100 µM | > 100 µM | > 100 µM | > 100 µM | > 100 µM | > 100 µM | > 100 µM | – | – | – | – | – | – | – | – | – | – | – | –
CCCC(=O)Nc1cc(C(=O)N2C[C@H]3C[C@@]34C2=CC(=O)c2[nH]cc(C)c24)n(COC)c1 | 50 µM and 12.8 µM | 1.03 µM and 0.52 µM | 1.28 µM | 1.7 µM and 0.758 µM | – | 50 µM | 0.688 µM | 7.27 µM | 1.2 µM | 0.175 µM | – | 0.22 µM | – | – | – | – | 2.88 µM and 0.989 µM | – | 0.159 µM | 0.267 µM
Nc1nc(SCc2ccccc2Cl)c2ncn(C3OC(CO)C(O)C3O)c2n1 (stereo not given) | > 100 µM | > 100 µM | > 100 µM | > 100 µM | > 100 µM | > 100 µM | > 100 µM | > 100 µM | – | – | – | – | – | – | – | – | – | – | – | –
Cc1ccc(S(=O)(=O)OC[C@@]2(C)CC[C@]3(C)CC[C@]4(C)C(=C3C2)C=C[C@@H]2[C@@]3(C)CCCNC(C)(C)[C@@H]3CC[C@]24C)cc1 | – | 3.06 µM | 3.26 µM | 3.13 µM | 3.17 µM | 3.21 µM | – | – | – | 1.61 µM | 1.78 µM | 1.71 µM | 1.66 µM | 1.77 µM | – | – | 4.26 µM | – | – | 1.94 µM
Cc1sc(/N=C/C2=C(O)CC(C)(C)CC2=O)nc1-c1ccccc1 | > 100 µM | > 100 µM | > 100 µM | – | > 100 µM | > 100 µM | > 100 µM | > 100 µM | – | – | – | – | – | – | – | – | > 100 µM | > 100 µM | – | –
CC1CC(=O)N(N(C)C)C2(C#N)C(=O)N=C(N)C12C#N (stereo not given) | > 100 µM | 48.3 µM | – | > 100 µM | > 100 µM | > 100 µM | – | > 100 µM | – | – | – | – | – | – | – | – | > 100 µM | – | – | –
Cc1ccc(S(=O)(=O)N/N=C2\C=CC3(CC2)C(=O)N(I)c2ccccc23)cc1 (stereo not given) | > 100 µM | > 100 µM | > 100 µM | > 100 µM | > 100 µM | > 100 µM | > 100 µM | > 100 µM | – | – | – | – | – | – | – | – | – | – | – | –
O=C(O)CN1C(=O)c2ccc(NC(=O)C(=O)O)cc2S1(=O)=O | > 100 µM | > 100 µM | > 100 µM | > 100 µM | > 100 µM | > 100 µM | – | > 100 µM | – | – | – | – | – | – | – | – | > 100 µM | > 100 µM | – | –
CNC(=S)N/N=C/C(C)=N/NC(=S)NC | > 100 µM | – | > 100 µM | > 100 µM | > 100 µM | > 100 µM | > 100 µM | > 100 µM | – | – | – | – | – | – | – | – | – | – | – | –
COC(=O)CN1CCN(c2cccc3c2CCCC3)CC1 | > 100 µM | > 100 µM | – | > 100 µM | > 100 µM | > 100 µM | 72.4 µM | > 100 µM | – | – | – | – | – | – | – | – | > 100 µM | – | – | –
CCCCCCCCCCCC1N=C(N)N=C(N)N1c1cccc(Br)c1 (stereo not given) | – | 4.12 µM | – | 11.3 µM | 1.98 µM | 2.22 µM | – | 1.5 µM | – | 1.8 µM | – | 2.65 µM | 0.631 µM | 0.811 µM | – | 0.216 µM | 4.77 µM | – | – | 2.08 µM
CC(=O)N[C@@H](Cc1ccc(O)cn1)C(=O)NCc1ccc(Cl)cc1 | > 100 µM | > 100 µM | > 100 µM | > 100 µM | > 100 µM | > 100 µM | > 100 µM | > 100 µM | – | – | – | – | – | – | – | – | – | > 100 µM | – | –
O=C(/C=C/c1ccc(-c2ccccc2)cc1)NCc1ccc(C(=O)NCCc2ccccc2)cc1 | > 100 µM | > 100 µM | > 100 µM | > 100 µM | > 100 µM | > 100 µM | > 100 µM | > 100 µM | – | – | – | – | – | – | – | – | – | > 100 µM | – | –
